One block for each compound: values may come before it.
Tests used:
[1] = biological target: High affinity nerve growth factor receptor (Homo sapiens, UniProt P04629); assay: Selectivity interaction (Ambit KINOMEscan and KiNATiv profiling in Jurkat cells) EUB0000090b NTRK1; type: cell-based; conditions: at 1 µM
[2] = biological target: T1, Serine/threonine-protein kinase VRK1 (Homo sapiens) (UniProt Q99986); assay: Selectivity interaction (Kinase panel (DSF assay)) EUB0001559a VRK1
T1 sequence (whole entry): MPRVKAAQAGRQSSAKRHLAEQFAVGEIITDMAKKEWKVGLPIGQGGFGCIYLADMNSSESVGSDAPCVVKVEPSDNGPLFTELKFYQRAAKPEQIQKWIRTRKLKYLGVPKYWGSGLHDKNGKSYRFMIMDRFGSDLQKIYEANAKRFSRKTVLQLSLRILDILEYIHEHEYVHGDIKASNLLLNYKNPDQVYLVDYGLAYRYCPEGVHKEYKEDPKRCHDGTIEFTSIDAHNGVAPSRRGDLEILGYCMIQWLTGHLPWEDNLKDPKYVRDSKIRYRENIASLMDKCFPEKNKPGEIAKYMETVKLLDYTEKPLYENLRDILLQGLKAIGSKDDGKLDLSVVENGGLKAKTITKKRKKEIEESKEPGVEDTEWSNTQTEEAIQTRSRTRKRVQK

[3] = biological target: T2, Mitogen-activated protein kinase kinase kinase 7 (Homo sapiens) (UniProt O43318); assay: Selectivity interaction (KinomeScan (DiscoverX)) EUB0000655a MAP3K7; conditions: at 10 µM
T2 sequence (whole entry): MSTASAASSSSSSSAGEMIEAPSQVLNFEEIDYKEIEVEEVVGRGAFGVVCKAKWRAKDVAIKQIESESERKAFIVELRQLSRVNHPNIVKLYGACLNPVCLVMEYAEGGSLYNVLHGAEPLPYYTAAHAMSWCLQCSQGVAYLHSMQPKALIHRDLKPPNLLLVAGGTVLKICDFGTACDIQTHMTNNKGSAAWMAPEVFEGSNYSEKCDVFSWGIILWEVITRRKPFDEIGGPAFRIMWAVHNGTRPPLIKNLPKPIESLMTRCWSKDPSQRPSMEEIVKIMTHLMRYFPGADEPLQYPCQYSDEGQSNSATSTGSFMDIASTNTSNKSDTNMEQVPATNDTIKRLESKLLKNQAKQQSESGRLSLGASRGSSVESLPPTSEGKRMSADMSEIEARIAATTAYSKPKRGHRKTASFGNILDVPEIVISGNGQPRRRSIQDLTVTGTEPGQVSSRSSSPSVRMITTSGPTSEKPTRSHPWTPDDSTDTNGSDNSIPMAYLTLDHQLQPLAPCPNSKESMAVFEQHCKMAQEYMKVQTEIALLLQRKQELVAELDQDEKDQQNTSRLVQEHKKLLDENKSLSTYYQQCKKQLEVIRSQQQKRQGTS

[4] = system: Tyrosine-protein kinase ABL1 (Homo sapiens), P00519 [F317I]; assay: Selectivity interaction (KinomeScan (DiscoverX)) EUB0000607a ABL1; conditions: at 10 µM
Chain of Tyrosine-protein kinase ABL1 (Homo sapiens), P00519 [F317I] (P00519 whole entry F317I): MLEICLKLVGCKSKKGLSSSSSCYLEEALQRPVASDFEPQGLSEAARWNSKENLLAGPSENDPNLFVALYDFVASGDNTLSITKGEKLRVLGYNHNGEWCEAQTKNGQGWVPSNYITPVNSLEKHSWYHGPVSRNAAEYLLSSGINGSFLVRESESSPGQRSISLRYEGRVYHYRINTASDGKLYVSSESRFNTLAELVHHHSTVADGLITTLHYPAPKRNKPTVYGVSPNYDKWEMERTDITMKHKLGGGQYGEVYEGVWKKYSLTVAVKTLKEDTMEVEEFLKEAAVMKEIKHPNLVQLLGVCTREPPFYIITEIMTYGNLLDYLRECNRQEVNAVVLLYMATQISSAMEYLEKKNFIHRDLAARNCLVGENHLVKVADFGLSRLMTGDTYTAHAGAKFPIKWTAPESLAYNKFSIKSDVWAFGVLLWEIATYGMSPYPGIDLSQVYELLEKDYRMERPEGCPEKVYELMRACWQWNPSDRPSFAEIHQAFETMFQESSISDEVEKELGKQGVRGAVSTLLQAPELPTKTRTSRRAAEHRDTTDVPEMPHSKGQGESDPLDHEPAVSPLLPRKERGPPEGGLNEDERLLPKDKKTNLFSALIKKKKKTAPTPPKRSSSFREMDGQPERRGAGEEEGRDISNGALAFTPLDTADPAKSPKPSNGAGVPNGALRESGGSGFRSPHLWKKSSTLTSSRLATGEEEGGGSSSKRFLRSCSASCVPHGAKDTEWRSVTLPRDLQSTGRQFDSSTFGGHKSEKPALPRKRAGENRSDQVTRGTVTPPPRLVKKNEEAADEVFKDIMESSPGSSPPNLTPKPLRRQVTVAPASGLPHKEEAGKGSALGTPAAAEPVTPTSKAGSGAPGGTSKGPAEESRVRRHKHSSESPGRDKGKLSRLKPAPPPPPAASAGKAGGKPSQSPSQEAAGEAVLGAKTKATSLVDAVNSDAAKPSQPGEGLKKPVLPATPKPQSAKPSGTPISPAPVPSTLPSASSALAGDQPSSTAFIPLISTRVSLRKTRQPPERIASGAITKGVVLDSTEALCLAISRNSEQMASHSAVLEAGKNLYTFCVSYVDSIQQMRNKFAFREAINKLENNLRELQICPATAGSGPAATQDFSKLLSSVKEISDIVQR

[5] = biological target: T3, EKC/KEOPS complex subunit TP53RK (Homo sapiens) (UniProt Q96S44); assay: Selectivity interaction (ActivX KiNativ screen (ex vivo kinase selectivity in human PBMCs)) EUB0001619a TP53RK; type: cell-based; conditions: PBMC, at 1 µM
T3 sequence (whole entry): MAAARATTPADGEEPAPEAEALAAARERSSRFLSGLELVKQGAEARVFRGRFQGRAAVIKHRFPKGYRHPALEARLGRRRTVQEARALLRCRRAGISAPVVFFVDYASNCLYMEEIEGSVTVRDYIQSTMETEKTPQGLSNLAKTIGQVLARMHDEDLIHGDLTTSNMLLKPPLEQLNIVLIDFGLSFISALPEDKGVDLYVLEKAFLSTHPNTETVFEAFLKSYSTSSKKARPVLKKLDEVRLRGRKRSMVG

[6] = biological target: T4, Inhibitor of nuclear factor kappa-B kinase subunit alpha (Homo sapiens) (UniProt O15111); assay: Selectivity interaction (KinomeScan (DiscoverX)) EUB0000595a CHUK; conditions: at 10 µM
T4 sequence (whole entry): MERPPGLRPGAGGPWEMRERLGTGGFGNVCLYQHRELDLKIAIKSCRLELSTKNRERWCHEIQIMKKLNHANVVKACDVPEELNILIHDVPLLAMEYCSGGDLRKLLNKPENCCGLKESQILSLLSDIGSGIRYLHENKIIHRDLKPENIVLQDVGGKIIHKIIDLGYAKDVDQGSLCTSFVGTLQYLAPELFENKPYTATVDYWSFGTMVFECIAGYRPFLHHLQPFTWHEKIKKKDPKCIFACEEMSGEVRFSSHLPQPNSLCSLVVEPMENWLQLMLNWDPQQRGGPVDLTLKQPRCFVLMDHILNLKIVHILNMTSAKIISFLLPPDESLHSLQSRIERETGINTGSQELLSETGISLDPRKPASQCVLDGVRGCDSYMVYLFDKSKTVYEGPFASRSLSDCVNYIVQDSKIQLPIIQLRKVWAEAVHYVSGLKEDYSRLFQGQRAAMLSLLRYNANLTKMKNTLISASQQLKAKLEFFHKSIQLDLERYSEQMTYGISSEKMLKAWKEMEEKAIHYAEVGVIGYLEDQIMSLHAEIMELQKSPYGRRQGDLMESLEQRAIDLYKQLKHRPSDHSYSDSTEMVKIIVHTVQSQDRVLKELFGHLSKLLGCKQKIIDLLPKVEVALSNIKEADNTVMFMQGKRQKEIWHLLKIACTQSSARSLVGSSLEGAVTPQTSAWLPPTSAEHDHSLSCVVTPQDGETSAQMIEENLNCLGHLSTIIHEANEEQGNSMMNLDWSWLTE

[7] = biological target: Casein kinase I isoform alpha (Homo sapiens, UniProt P48729); assay: Selectivity interaction (ActivX KiNativ screen (kinase selectivity in THP-1 cell lysates)) EUB0000639a CSNK1A1; type: subcellular; conditions: lysate, at 0.2 µM
Chain of Casein kinase I isoform alpha (P48729 2-337 limits assumed): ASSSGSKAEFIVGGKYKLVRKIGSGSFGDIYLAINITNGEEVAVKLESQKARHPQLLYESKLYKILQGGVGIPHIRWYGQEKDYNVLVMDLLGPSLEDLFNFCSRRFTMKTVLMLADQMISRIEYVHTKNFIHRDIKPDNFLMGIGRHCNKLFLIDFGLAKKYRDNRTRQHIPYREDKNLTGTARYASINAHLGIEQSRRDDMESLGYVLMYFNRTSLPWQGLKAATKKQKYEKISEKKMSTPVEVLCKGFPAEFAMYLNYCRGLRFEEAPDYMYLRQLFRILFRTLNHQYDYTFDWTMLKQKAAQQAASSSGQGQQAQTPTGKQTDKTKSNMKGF

[8] = biological target: Lethal(3)malignant brain tumor-like protein 1 (Homo sapiens) (UniProt Q9Y468); assay: Selectivity interaction (PWWP, WD40, and Tudor domain panel (DSLS measurements, literature)) EUB0000270b L3MBTL
Chain of Lethal(3)malignant brain tumor-like protein 1 (Homo sapiens) (Q9Y468 whole entry, the tested form may be a part): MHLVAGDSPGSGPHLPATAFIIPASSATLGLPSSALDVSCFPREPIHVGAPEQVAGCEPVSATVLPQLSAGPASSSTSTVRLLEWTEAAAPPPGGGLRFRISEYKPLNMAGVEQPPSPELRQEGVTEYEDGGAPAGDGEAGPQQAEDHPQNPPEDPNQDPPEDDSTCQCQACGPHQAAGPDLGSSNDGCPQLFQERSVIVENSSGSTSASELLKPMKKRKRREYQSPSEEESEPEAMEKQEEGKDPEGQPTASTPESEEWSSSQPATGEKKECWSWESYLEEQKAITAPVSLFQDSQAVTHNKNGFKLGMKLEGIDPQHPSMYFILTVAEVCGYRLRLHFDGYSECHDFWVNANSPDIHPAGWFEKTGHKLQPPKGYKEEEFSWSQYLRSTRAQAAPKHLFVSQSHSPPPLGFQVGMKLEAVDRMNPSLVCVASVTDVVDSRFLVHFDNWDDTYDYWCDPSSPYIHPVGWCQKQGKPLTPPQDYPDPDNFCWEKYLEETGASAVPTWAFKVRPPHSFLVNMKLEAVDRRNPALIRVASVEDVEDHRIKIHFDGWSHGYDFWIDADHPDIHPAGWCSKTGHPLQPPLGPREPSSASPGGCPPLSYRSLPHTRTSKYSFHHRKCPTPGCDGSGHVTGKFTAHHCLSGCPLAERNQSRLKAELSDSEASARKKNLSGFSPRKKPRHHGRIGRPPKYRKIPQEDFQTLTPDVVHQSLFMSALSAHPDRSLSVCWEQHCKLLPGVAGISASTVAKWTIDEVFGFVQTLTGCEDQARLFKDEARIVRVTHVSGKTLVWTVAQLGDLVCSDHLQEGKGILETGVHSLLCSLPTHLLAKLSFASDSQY

[9] = biological target: Ribosomal protein S6 kinase alpha-2 (Homo sapiens) (UniProt Q15349); assay: Selectivity interaction (KinomeScan (DiscoverX)) EUB0000311b RPS6KA2; conditions: at 1 µM
Chain of Ribosomal protein S6 kinase alpha-2 (Homo sapiens) (Q15349 whole entry): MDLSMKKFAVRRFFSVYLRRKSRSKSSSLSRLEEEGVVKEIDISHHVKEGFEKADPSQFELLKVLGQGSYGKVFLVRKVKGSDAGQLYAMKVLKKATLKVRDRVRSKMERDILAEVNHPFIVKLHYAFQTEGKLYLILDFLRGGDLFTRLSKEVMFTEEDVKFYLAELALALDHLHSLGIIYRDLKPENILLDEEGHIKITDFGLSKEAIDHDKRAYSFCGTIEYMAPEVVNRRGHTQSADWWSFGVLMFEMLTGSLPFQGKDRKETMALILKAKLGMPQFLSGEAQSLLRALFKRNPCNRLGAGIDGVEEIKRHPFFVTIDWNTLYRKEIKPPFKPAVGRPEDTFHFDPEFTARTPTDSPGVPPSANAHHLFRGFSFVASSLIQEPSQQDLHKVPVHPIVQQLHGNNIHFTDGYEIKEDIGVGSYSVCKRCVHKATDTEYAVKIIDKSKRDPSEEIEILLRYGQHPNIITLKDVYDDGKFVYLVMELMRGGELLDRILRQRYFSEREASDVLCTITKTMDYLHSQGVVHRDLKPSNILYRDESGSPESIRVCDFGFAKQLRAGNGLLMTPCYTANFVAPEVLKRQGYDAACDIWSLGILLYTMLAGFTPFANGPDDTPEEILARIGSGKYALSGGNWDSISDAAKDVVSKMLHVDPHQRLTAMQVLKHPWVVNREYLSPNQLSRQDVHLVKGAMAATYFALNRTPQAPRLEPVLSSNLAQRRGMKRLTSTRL

Chain of High affinity nerve growth factor receptor (P04629 33-796 limits assumed): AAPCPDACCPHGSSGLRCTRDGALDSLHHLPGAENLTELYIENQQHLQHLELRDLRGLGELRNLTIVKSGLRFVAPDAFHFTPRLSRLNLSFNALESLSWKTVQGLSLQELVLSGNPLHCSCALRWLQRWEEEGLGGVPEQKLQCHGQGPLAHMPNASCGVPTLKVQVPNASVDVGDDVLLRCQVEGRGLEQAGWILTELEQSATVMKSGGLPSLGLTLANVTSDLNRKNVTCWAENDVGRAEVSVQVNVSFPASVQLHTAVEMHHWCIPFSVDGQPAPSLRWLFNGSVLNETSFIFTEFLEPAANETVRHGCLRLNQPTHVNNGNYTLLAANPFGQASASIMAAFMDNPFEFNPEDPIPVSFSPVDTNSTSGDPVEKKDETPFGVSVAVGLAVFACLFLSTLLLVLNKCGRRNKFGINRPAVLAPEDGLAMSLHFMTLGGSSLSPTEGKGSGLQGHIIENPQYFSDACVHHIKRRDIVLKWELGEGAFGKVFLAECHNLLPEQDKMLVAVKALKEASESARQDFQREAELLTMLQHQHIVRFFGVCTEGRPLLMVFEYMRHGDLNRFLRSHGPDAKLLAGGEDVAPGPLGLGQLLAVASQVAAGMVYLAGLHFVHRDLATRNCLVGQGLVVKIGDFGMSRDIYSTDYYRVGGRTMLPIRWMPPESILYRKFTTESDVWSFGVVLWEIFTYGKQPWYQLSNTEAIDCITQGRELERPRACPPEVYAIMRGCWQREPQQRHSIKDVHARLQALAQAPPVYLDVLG

SMILES: CN(C)C/C=C/C(=O)Nc1ccc(C(=O)N2CCCC(Nc3ncc(Cl)c(-c4c[nH]c5ccccc45)n3)C2)cc1 (centres undefined)
% of control [1]: 78%

dTM [2]: 0.2 K
SMILES: CN(C(=O)c1cnn2cccnc12)c1cc2c(cc1N1CCOCC1)C(=O)N(C[C@@H](F)C(C)(C)O)C2

SMILES: CN(C)CCOc1ccc(-c2nc(-c3ccncc3)c(-c3ccc4c(c3)CC/C4=N\O)[nH]2)cc1
% of control [3]: 89%

SMILES: CNC(=O)Nc1ccc(-c2nc(N3CC4CCC(C3)O4)c3cnn(C4CCC5(CC4)OCCO5)c3n2)cc1
% of control [4]: 100%

SMILES: N#Cc1cccc(-c2c[nH]c3ncnc(N4CCOCC4)c23)c1
% of inhibition [5]: -4%

SMILES: COCC(=O)NC/C=C/c1ccc2ncnc(Nc3ccc(Oc4ccc(C)nc4)c(C)c3)c2c1 [CP-724714]
% of control [6]: 100%

% of inhibition [7]: -3.6%
SMILES: CC[C@@H]1[C@H](F)C(=O)N[C@@H]1COc1nccc2cc(C(N)=O)c(OC)cc12 [ZIMLOVISERTIB]

SMILES: Cc1cc(CN)cc(C)c1-c1ncn(C)c1-c1cncn1C
dTagg [8]: 0.2 K

% of control [9]: 0%
SMILES: CCc1ccccc1C(=O)Nc1n[nH]c2c(C)c(F)c(C3C(C#N)=C(C)N(C)C(C)=C3C#N)cc12 [BAY-3827]

— ChEMBL document CHEMBL5465560, “Selectivity Literature for EUbOPEN Chemogenomic Library” (2024)
